Experimental data taken from PMC5218480 (PLoS ONE, 2017).

Tested on: MV-4-11 cells
Assay: Gene expression microarray analysis (Affymetrix PrimeView) and GSEA
Format: cell-based, human
Parameters: RFU PODN (11730768_x_at) / Fold change /veh PODN (11730768_x_at) / RFU LINC00158 (11744669_a_at) / Fold change /veh LINC00158 (11744669_a_at) / RFU DUSP10 (11751237_a_at) / Fold change /veh DUSP10 (11751237_a_at) / RFU ID3 (11757404_x_at) / Fold change /veh ID3 (11757404_x_at) / RFU PLEKHG5 (11737974_s_at) / Fold change /veh PLEKHG5 (11737974_s_at) / RFU LRRC4B (11730491_at) / Fold change /veh LRRC4B (11730491_at) / RFU GIMAP4 (11747438_a_at) / Fold change /veh GIMAP4 (11747438_a_at) / RFU KRT8 (11758183_x_at) / Fold change /veh KRT8 (11758183_x_at) / RFU CNN1 (11734310_a_at) / Fold change /veh CNN1 (11734310_a_at) / RFU VPS37D (11726825_at) / Fold change /veh VPS37D (11726825_at) / RFU C10orf10 (11716522_x_at) / Fold change /veh C10orf10 (11716522_x_at) / RFU KIR2DL2 /// KIR2DL4 /// KIR2DL5A /// KIR2DL5B /// KIR2DS1 /// KIR2DS2 /// KIR2DS3 /// KIR2DS4 /// KIR3DL3 /// KIR3DL3 /// KIR3DS1 (11738374_at) / Fold change /veh KIR2DL2 /// KIR2DL4 /// KIR2DL5A /// KIR2DL5B /// KIR2DS1 /// KIR2DS2 /// KIR2DS3 /// KIR2DS4 /// KIR3DL3 /// KIR3DL3 /// KIR3DS1 (11738374_at) / RFU C1QL1 (11718748_at) / Fold change /veh C1QL1 (11718748_at) / RFU TMPRSS4 (11747572_a_at) / Fold change /veh TMPRSS4 (11747572_a_at) / RFU HAMP (11756126_x_at) / Fold change /veh HAMP (11756126_x_at) / RFU RNFT2 (11725882_a_at) / Fold change /veh RNFT2 (11725882_a_at) / RFU NR4A2 (11747474_a_at) / Fold change /veh NR4A2 (11747474_a_at) / RFU ABCC12 (11746883_a_at) / Fold change /veh ABCC12 (11746883_a_at) / RFU TMEM136 (11760407_x_at) / Fold change /veh TMEM136 (11760407_x_at) / RFU CLDN22 /// WWC2 (11732394_at) / Fold change /veh CLDN22 /// WWC2 (11732394_at) / RFU HLA-DPB1 (11760878_x_at) / Fold change /veh HLA-DPB1 (11760878_x_at) / RFU SPINT1 (11716480_a_at) / Fold change /veh SPINT1 (11716480_a_at) / RFU GAP43 (11754022_s_at) / Fold change /veh GAP43 (11754022_s_at) / RFU A4GNT (11735810_at) / Fold change /veh A4GNT (11735810_at) / RFU PRB3 (11715151_x_at) / Fold change /veh PRB3 (11715151_x_at) / RFU TUBB4B (11761932_at) / Fold change /veh TUBB4B (11761932_at) / RFU CAPN14 (11732068_a_at) / Fold change /veh CAPN14 (11732068_a_at) / RFU TMCC2 (11721928_a_at) / Fold change /veh TMCC2 (11721928_a_at) / RFU IRGQ (11745062_a_at) / Fold change /veh IRGQ (11745062_a_at) / RFU FAM174B (11720279_a_at) / Fold change /veh FAM174B (11720279_a_at) / RFU TMPRSS4 (11748680_a_at) / Fold change /veh TMPRSS4 (11748680_a_at) / RFU FAM212B (11763350_a_at) / Fold change /veh FAM212B (11763350_a_at) / RFU PLEKHG5 (11743358_a_at) / Fold change /veh PLEKHG5 (11743358_a_at) / RFU ZSCAN30 (11745921_a_at) / Fold change /veh ZSCAN30 (11745921_a_at) / RFU CMKLR1 (11741424_a_at) / Fold change /veh CMKLR1 (11741424_a_at) / RFU LOC101060620 /// MAPK8IP1 (11723275_at) / Fold change /veh LOC101060620 /// MAPK8IP1 (11723275_at) / RFU SPTSSB (11747773_x_at) / Fold change /veh SPTSSB (11747773_x_at) / RFU PRSS12 (11739890_at) / Fold change /veh PRSS12 (11739890_at) / RFU BIN1 (11741810_x_at) / Fold change /veh BIN1 (11741810_x_at) / RFU WNT11 (11732464_a_at) / Fold change /veh WNT11 (11732464_a_at) / RFU C10orf10 (11716521_a_at) / Fold change /veh C10orf10 (11716521_a_at) / RFU C5orf56 (11738089_at) / Fold change /veh C5orf56 (11738089_at) / RFU CYB561 (11721691_x_at) / Fold change /veh CYB561 (11721691_x_at) / RFU ANKRD19P (11752326_a_at) / Fold change /veh ANKRD19P (11752326_a_at) / RFU OR2T12 /// OR2T33 /// OR2T8 (11738714_s_at) / Fold change /veh OR2T12 /// OR2T33 /// OR2T8 (11738714_s_at) / RFU VCAN (11748164_a_at) / Fold change /veh VCAN (11748164_a_at) / RFU JSRP1 (11732532_at) / Fold change /veh JSRP1 (11732532_at) / RFU KRTAP10-11 (11738290_x_at) / Fold change /veh KRTAP10-11 (11738290_x_at) / RFU MYO3A (11730013_a_at) / Fold change /veh MYO3A (11730013_a_at) / RFU EBF3 (11725865_a_at) / Fold change /veh EBF3 (11725865_a_at) / RFU CAMK2N1 (11719241_x_at) / Fold change /veh CAMK2N1 (11719241_x_at) / RFU C5orf56 (11738088_a_at) / Fold change /veh C5orf56 (11738088_a_at) / RFU OLFML3 (11715873_a_at) / Fold change /veh OLFML3 (11715873_a_at) / RFU LOC100653217 /// NTM (11731650_a_at) / Fold change /veh LOC100653217 /// NTM (11731650_a_at) / RFU MAPK11 (11762145_a_at) / Fold change /veh MAPK11 (11762145_a_at) / RFU FIZ1 (11724087_x_at) / Fold change /veh FIZ1 (11724087_x_at) / RFU OASL (11726364_x_at) / Fold change /veh OASL (11726364_x_at) / RFU SOX15 (11748057_x_at) / Fold change /veh SOX15 (11748057_x_at) / RFU CD79A (11719716_a_at) / Fold change /veh CD79A (11719716_a_at) / RFU HIST1H1D (11736915_at) / Fold change /veh HIST1H1D (11736915_at) / RFU CASKIN2 (11723855_a_at) / Fold change /veh CASKIN2 (11723855_a_at) / RFU LOC730098 (11760151_x_at) / Fold change /veh LOC730098 (11760151_x_at) / RFU OR4N2 (11742367_at) / Fold change /veh OR4N2 (11742367_at) / RFU PRRT2 (11749266_a_at) / Fold change /veh PRRT2 (11749266_a_at) / RFU SNX32 (11753110_a_at) / Fold change /veh SNX32 (11753110_a_at) / RFU CDHR5 (11726645_a_at) / Fold change /veh CDHR5 (11726645_a_at) / RFU RCAN1 (11760418_a_at) / Fold change /veh RCAN1 (11760418_a_at) / RFU FAM167A (11723789_a_at) / Fold change /veh FAM167A (11723789_a_at) / RFU FAM26E (11764081_at) / Fold change /veh FAM26E (11764081_at) / RFU ISYNA1 (11749810_s_at) / Fold change /veh ISYNA1 (11749810_s_at) / RFU ACY1 (11761880_at) / Fold change /veh ACY1 (11761880_at) / RFU 11764098_at / Fold change /veh 11764098_at / RFU SAMD14 (11745864_x_at) / Fold change /veh SAMD14 (11745864_x_at) / RFU NPB (11741838_a_at) / Fold change /veh NPB (11741838_a_at) / RFU TMPRSS6 (11731388_a_at) / Fold change /veh TMPRSS6 (11731388_a_at) / RFU KRTAP10-2 (11738614_at) / Fold change /veh KRTAP10-2 (11738614_at) / RFU ARHGAP8 /// PRR5-ARHGAP8 (11727945_x_at) / Fold change /veh ARHGAP8 /// PRR5-ARHGAP8 (11727945_x_at) / RFU KRTAP5-7 /// NADSYN1 (11734609_at) / Fold change /veh KRTAP5-7 /// NADSYN1 (11734609_at) / RFU RASL12 (11751679_a_at) / Fold change /veh RASL12 (11751679_a_at) / RFU CDKN2B (11736163_a_at) / Fold change /veh CDKN2B (11736163_a_at) / RFU PRF1 (11729649_at) / Fold change /veh PRF1 (11729649_at) / RFU, ZNF638 /// ZNF638-IT1 / Fold change vs veh, ZNF638 /// ZNF638-IT1 / RFU, PANK3 / Fold change vs veh, PANK3 / RFU, SH3YL1 / Fold change vs veh, SH3YL1 / RFU, ZEB2 / Fold change vs veh, ZEB2 / RFU, NRIP1 / Fold change vs veh, NRIP1 / RFU, PTTG1IP / Fold change vs veh, PTTG1IP / RFU, CAPN2 / Fold change vs veh, CAPN2 / RFU, MED14 / Fold change vs veh, MED14 / RFU, SNORA58 / Fold change vs veh, SNORA58 / RFU, C1orf63 / Fold change vs veh, C1orf63 / RFU, LRRFIP1 / Fold change vs veh, LRRFIP1 / RFU, NDUFAF7 / Fold change vs veh, NDUFAF7 / RFU, SLC12A2 / Fold change vs veh, SLC12A2 / RFU, IBTK / Fold change vs veh, IBTK / RFU, ESF1 / Fold change vs veh, ESF1 / Fold change vs veh, TMEM50B / RFU, TAOK1 / Fold change vs veh, TAOK1 / RFU, ACBD3 / Fold change vs veh, ACBD3 / RFU, TMA16 / Fold change vs veh, TMA16 / RFU, RWDD3 / Fold change vs veh, RWDD3 / RFU, BCAT1 / Fold change vs veh, BCAT1 / RFU, EDEM3 / Fold change vs veh, EDEM3 / RFU, TMEM33 / Fold change vs veh, TMEM33 / RFU, WDR75 / Fold change vs veh, WDR75 / RFU, AHCTF1 / Fold change vs veh, AHCTF1 / RFU, TFRC / Fold change vs veh, TFRC / RFU, ZDHHC17 / Fold change vs veh, ZDHHC17 / RFU, NOM1 / Fold change vs veh, NOM1 / RFU, ARL8B / Fold change vs veh, ARL8B / RFU, ZBTB11 / Fold change vs veh, ZBTB11 / RFU, TAMM41 / Fold change vs veh, TAMM41 / RFU, KIAA1704 /// LOC100996395 / Fold change vs veh, KIAA1704 /// LOC100996395 / RFU, ING1 / Fold change vs veh, ING1 / RFU, TRMT61B / Fold change vs veh, TRMT61B / RFU, FUBP3 / Fold change vs veh, FUBP3 / RFU, TP53 / Fold change vs veh, TP53 / RFU, TNKS2 / Fold change vs veh, TNKS2 / RFU, ZFP14 / Fold change vs veh, ZFP14 / RFU, ACTR2 / Fold change vs veh, ACTR2 / RFU, PPP3R1 / Fold change vs veh, PPP3R1 / RFU, PIK3R1 / Fold change vs veh, PIK3R1 / RFU, HNRNPA1 / Fold change vs veh, HNRNPA1 / RFU, RNF170 / Fold change vs veh, RNF170 / RFU, ZNF28 / Fold change vs veh, ZNF28 / RFU, RNGTT / Fold change vs veh, RNGTT / RFU, OGT / Fold change vs veh, OGT / RFU, BRD1 / Fold change vs veh, BRD1 / RFU, MARS / Fold change vs veh, MARS / RFU, ZNF655 / Fold change vs veh, ZNF655 / RFU, FAHD1 / Fold change vs veh, FAHD1 / RFU, BDP1 / Fold change vs veh, BDP1 / RFU, LRRCC1 / Fold change vs veh, LRRCC1 / RFU, ARID1A / Fold change vs veh, ARID1A / RFU, ZNF146 / Fold change vs veh, ZNF146 / RFU, ZNF330 / Fold change vs veh, ZNF330 / RFU, GPN3 / Fold change vs veh, GPN3 / RFU, C9orf123 / Fold change vs veh, C9orf123 / RFU, N4BP2L2 / Fold change vs veh, N4BP2L2 / RFU, ARFIP1 / Fold change vs veh, ARFIP1 / RFU, FAM179B / Fold change vs veh, FAM179B / RFU, BCL10 / Fold change vs veh, BCL10 / RFU, UHRF1BP1L / Fold change vs veh, UHRF1BP1L / RFU, BET1 / Fold change vs veh, BET1 / RFU, CNOT2 / Fold change vs veh, CNOT2 / RFU, ZNF268 / Fold change vs veh, ZNF268 / Fold change vs veh, ZNF507 / RFU, DGCR2 / Fold change vs veh, DGCR2 / RFU, WDSUB1 / Fold change vs veh, WDSUB1 / Fold change vs veh, HSP90B1 /// MIR3652 / RFU, ADSS / Fold change vs veh, ADSS / RFU, GK / Fold change vs veh, GK / RFU, ZNF148 / Fold change vs veh, ZNF148 / RFU, TAF9 / Fold change vs veh, TAF9 / RFU, SLC1A5 / Fold change vs veh, SLC1A5 / RFU, SLMO2 / Fold change vs veh, SLMO2 / RFU, ABCC4 / Fold change vs veh, ABCC4 / RFU, LOC101060439 /// RAP1B / Fold change vs veh, LOC101060439 /// RAP1B / RFU, RFX7 / Fold change vs veh, RFX7 / RFU, GTPBP10 / Fold change vs veh, GTPBP10 / RFU, CNEP1R1 / Fold change vs veh, CNEP1R1 / RFU, BIVM-ERCC5 /// ERCC5 / Fold change vs veh, BIVM-ERCC5 /// ERCC5 / RFU, ILF3 / Fold change vs veh, ILF3 / RFU 11762660_at / Fold change /veh 11762660_at / RFU VCAN (11757783_s_at) / Fold change /veh VCAN (11757783_s_at) / RFU DDX43 (11728927_at) / Fold change /veh DDX43 (11728927_at) / RFU KRT8 (11758188_x_at) / Fold change /veh KRT8 (11758188_x_at) / RFU NKD1 (11759106_at) / Fold change /veh NKD1 (11759106_at) / RFU SRD5A1 (11742802_a_at) / Fold change /veh SRD5A1 (11742802_a_at) / RFU TPSAB1 /// TPSB2 (11721975_s_at) / Fold change /veh TPSAB1 /// TPSB2 (11721975_s_at) / RFU GSTM3 (11746129_a_at) / Fold change /veh GSTM3 (11746129_a_at) / RFU IL23R (11737362_x_at) / Fold change /veh IL23R (11737362_x_at) / RFU TMEM51 (11727254_a_at) / Fold change /veh TMEM51 (11727254_a_at) / RFU PIWIL2 (11732686_x_at) / Fold change /veh PIWIL2 (11732686_x_at) / RFU ORM1 (11744905_x_at) / Fold change /veh ORM1 (11744905_x_at) / RFU CCDC152 (11743942_at) / Fold change /veh CCDC152 (11743942_at) / RFU ECM1 (11717891_a_at) / Fold change /veh ECM1 (11717891_a_at) / RFU IL23R (11748794_a_at) / Fold change /veh IL23R (11748794_a_at) / RFU TNFAIP8L3 (11732012_x_at) / Fold change /veh TNFAIP8L3 (11732012_x_at) / RFU MBOAT4 (11741988_at) / Fold change /veh MBOAT4 (11741988_at) / RFU 11764193_at / Fold change /veh 11764193_at / RFU TMEM53 (11763286_at) / Fold change /veh TMEM53 (11763286_at) / RFU MAGEB2 (11727129_at) / Fold change /veh MAGEB2 (11727129_at) / RFU TMEM200A (11744735_a_at) / Fold change /veh TMEM200A (11744735_a_at) / RFU CCDC152 (11751479_a_at) / Fold change /veh CCDC152 (11751479_a_at) / RFU FAM211A (11726209_a_at) / Fold change /veh FAM211A (11726209_a_at) / RFU RGS16 (11746705_a_at) / Fold change /veh RGS16 (11746705_a_at) / RFU VCAN (11755009_s_at) / Fold change /veh VCAN (11755009_s_at) / RFU RHOB (11743442_s_at) / Fold change /veh RHOB (11743442_s_at) / RFU RGS16 (11720943_a_at) / Fold change /veh RGS16 (11720943_a_at) / RFU RGS16 (11720944_at) / Fold change /veh RGS16 (11720944_at) / RFU, VPS4B / Fold change vs veh, VPS4B / RFU, CREB1 / Fold change vs veh, CREB1 / RFU, DNAJC13 / Fold change vs veh, DNAJC13 / RFU, GNAQ / Fold change vs veh, GNAQ / RFU, CDK5R1 / Fold change vs veh, CDK5R1 / RFU, ZRANB3 / Fold change vs veh, ZRANB3 / RFU, CUL4A / Fold change vs veh, CUL4A / RFU, CCNY / Fold change vs veh, CCNY / RFU, UFL1 / Fold change vs veh, UFL1 / RFU, COG3 / Fold change vs veh, COG3 / RFU, DIAPH2 / Fold change vs veh, DIAPH2 / RFU, SKA2 / Fold change vs veh, SKA2 / RFU, AFF3 / Fold change vs veh, AFF3 / RFU, LMF1 / Fold change vs veh, LMF1 / RFU, IPO11 / Fold change vs veh, IPO11 / RFU, DFFB / Fold change vs veh, DFFB / RFU, FOXP1 / Fold change vs veh, FOXP1 / RFU, CARD8 / Fold change vs veh, CARD8 / RFU, STRN3 / Fold change vs veh, STRN3 / RFU, ADK / Fold change vs veh, ADK / RFU, RASSF2 / Fold change vs veh, RASSF2 / RFU, WIPF1 / Fold change vs veh, WIPF1 / RFU, LARP1B / Fold change vs veh, LARP1B / RFU, RASA1 / Fold change vs veh, RASA1 / RFU, RB1 / Fold change vs veh, RB1 / RFU, PPFIA1 / Fold change vs veh, PPFIA1 / RFU, MAT2A / Fold change vs veh, MAT2A / RFU, CCT5 / Fold change vs veh, CCT5 / RFU, WDR92 / Fold change vs veh, WDR92 / RFU, CUX1 / Fold change vs veh, CUX1 / RFU, TTC7A / Fold change vs veh, TTC7A / RFU, TMEM135 / Fold change vs veh, TMEM135 / RFU, DEPTOR / Fold change vs veh, DEPTOR / RFU, CPM / Fold change vs veh, CPM / RFU, DNAJB6 / Fold change vs veh, DNAJB6 / RFU, CACNA2D3 / Fold change vs veh, CACNA2D3 / RFU, DTX4 / Fold change vs veh, DTX4 / RFU, TFCP2 / Fold change vs veh, TFCP2 / RFU, GMCL1 /// GMCL1P1 / Fold change vs veh, GMCL1 /// GMCL1P1 / RFU, AEBP2 / Fold change vs veh, AEBP2 / RFU, SNHG1 /// SNORD22 /// SNORD25 /// SNORD26 /// SNORD27 /// SNORD28 /// SNORD29 /// SNORD31 / Fold change vs veh, SNHG1 /// SNORD22 /// SNORD25 /// SNORD26 /// SNORD27 /// SNORD28 /// SNORD29 /// SNORD31 / Fold change (Aza/veh), C12orf56 (ProbeSet 11735607_a_at) / Fold change (ACY-1035/veh), C12orf56 (ProbeSet 11735607_a_at) / Fold change (Aza/veh), FGFR1OP (ProbeSet 11751329_s_at) / Fold change (ACY-1035/veh), FGFR1OP (ProbeSet 11751329_s_at) / Fold change (Aza/veh), VPS36 (ProbeSet 11739960_a_at) / Fold change (ACY-1035/veh), VPS36 (ProbeSet 11739960_a_at) / RFU SYPL1 (11715823_x_at) / Fold change /veh SYPL1 (11715823_x_at) / RFU IGFBP7 (11715501_s_at) / Fold change /veh IGFBP7 (11715501_s_at) / RFU REEP3 (11722064_at) / Fold change /veh REEP3 (11722064_at) / RFU IGLL1 (11728026_x_at) / Fold change /veh IGLL1 (11728026_x_at): dose or concentration left out as unconfirmed
Settings: MV-4-11 cells, 48 hours

## Nc1ccc(-c2cccs2)cc1NC(=O)c1ccc2c(c1)cc(C1CC1)n2CCN1CCOCC1 [ACY-1035]
  RFU PIWIL2 (11732686_x_at): 9.71 RFU
